According to patent US9056832B2, “Pyridine compounds and the users thereof” (Purdue Pharma L.P., priority 2010, dated 2015):
Read-outs that look alike come from different tables or passages of the source.

Molecular target: human Nav1.7 (Homo sapiens (Human), UniProt Q15858)
Assay: FLIPR or FLIPR TETRA sodium dye assay with KCl and test article pre-incubation
Type: cell-based
Details: read-out: Nav1.7 IC50 (μM) ± SEM
[1] = recombinant human Nav1.7 in HEK293 cells, CoroNa Green sodium dye, veratridine + scorpion venom

Sequence of human Nav1.7 (Q15858 other isoform, or with tags, fused parts or gaps): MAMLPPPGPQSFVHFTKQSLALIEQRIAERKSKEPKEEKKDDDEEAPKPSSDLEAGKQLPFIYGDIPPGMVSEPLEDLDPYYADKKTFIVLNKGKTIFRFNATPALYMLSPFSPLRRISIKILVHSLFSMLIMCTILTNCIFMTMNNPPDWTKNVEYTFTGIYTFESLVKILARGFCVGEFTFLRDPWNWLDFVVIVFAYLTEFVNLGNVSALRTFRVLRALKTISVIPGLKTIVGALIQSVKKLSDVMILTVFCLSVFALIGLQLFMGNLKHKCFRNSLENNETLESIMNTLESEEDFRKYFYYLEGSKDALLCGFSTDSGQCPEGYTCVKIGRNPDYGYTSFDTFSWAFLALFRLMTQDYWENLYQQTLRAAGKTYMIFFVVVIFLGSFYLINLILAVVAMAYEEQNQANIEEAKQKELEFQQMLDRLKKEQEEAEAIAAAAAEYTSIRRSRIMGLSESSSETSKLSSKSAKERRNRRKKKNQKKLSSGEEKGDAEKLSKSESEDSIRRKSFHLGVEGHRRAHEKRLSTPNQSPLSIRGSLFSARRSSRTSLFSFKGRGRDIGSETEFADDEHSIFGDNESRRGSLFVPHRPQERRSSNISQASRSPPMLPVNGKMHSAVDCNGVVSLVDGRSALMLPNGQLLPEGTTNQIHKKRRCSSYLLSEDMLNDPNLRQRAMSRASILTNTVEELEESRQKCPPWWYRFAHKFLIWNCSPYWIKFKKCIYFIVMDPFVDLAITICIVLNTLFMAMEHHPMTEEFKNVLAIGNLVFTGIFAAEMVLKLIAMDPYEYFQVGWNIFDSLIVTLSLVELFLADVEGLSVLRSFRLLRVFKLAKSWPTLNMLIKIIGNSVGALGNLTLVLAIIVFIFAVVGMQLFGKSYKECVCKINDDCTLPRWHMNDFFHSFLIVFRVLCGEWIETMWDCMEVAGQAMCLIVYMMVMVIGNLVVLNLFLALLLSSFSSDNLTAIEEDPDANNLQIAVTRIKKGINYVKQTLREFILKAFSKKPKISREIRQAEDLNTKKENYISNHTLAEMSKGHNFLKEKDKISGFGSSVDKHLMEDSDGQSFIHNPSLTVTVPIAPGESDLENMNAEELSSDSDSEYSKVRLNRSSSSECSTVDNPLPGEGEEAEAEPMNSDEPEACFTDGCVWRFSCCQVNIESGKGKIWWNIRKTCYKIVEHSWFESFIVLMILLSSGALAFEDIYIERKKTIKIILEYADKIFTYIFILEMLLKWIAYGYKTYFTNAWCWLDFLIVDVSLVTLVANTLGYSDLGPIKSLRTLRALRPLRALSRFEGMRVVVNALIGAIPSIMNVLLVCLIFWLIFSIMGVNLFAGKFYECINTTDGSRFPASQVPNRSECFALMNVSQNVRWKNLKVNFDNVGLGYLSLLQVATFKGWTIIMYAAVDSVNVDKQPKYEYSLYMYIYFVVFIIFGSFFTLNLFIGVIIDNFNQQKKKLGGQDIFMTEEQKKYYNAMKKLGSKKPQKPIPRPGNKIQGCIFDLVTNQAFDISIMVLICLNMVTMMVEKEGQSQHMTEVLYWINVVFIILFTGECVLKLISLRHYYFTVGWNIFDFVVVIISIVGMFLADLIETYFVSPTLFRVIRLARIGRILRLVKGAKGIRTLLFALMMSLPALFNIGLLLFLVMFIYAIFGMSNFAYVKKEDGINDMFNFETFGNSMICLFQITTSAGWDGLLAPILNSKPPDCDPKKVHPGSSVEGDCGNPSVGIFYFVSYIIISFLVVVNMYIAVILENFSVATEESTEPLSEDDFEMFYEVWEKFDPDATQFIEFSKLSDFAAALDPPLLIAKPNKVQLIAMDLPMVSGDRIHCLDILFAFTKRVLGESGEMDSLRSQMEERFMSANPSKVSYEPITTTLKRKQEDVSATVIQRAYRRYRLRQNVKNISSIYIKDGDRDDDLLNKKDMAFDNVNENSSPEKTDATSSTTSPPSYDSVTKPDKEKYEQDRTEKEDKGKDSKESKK

| Compound | IC50 | IC50 [1] |
| --- | --- | --- |
| CN(c1ccccc1)c1cc(C(=O)O)nc(-c2ccc(Oc3ccc(F)cc3)cc2)c1 [compound 114, 6-(4-(4-fluorophenoxy)phenyl)-4-(methyl(phenyl)amino)picolinic acid] | 0.68 ± 0.6 µM | – |
| C[C@H](Nc1cc(C#N)cc(-c2ccc(Oc3ccc(F)cc3)cc2)n1)C(N)=O [compound 166, (S)-2-((4-cyano-6-(4-(4-fluorophenoxy)phenyl)pyridin-2-yl)amino)propanamide] | – | 4.32 ± 1 µM |
| NC(=O)c1cc([C@H](O)CO)cc(-c2ccc(Oc3ccc(Cl)cc3F)cc2)n1 [compound 140, (S)-6-(4-(4-chloro-2-fluorophenoxy)phenyl)-4-(1,2-dihydroxyethyl) picolinamide] | – | 0.07 ± 0.01 µM |
| NC(=O)c1cc(C[C@@H](O)CO)cc(-c2ccc(Oc3ccc(F)cc3)cc2)n1 [compound 134, (R)-4-(2,3-dihydroxypropyl)-6-(4-(4-fluorophenoxy)phenyl)picolinamide] | – | 3.9 ± 0.34 µM |
| OC[C@H](O)c1cccc(-c2ccc(Oc3ccc(C(F)(F)F)cn3)cc2)n1 [compound 23, (R)-1-(6-(4-((5-(trifluoromethyl)pyridin-2-yl)oxy)phenyl)pyridin-2-yl)ethane-1,2-diol] | – | 4.89 ± 2.48 µM |
| N#CCCN(c1ccccc1)c1cc(C(N)=O)nc(-c2ccc(Oc3ccc(F)cc3)cc2)c1 [compound 44, 4-((2-cyanoethyl)(phenyl)amino)-6-(4-(4-fluorophenoxy)phenyl) picolinamide] | 3.29 ± 1.17 µM | – |
| O=C(O)CN(c1ccccc1)c1cc(-c2ccc(Oc3ccc(F)cc3)cc2)cc(C(=O)O)n1 [compound 121, 6-((carboxymethyl) (phenyl)amino)-4-(4-(4-fluorophenoxy)phenyl)picolinic acid] | – | 6.24 ± 0.81 µM |
| NC(=O)c1cc([C@@H](O)CO)cc(-c2ccc(Oc3cccc(OC(F)(F)F)c3)cc2)n1 [compound 164, 4-((R)-1,2-Dihydroxy-ethyl)-6-[4-(3-trifluoromethoxy-phenoxy)phenyl]-pyridine-2-carboxylic acid amide] | – | 0.49 ± 0.1 µM |
| N#Cc1cc(Oc2ccc(-c3cc([C@H](O)CO)cc(C(N)=O)n3)cc2)ccc1C(F)(F)F [compound 33, (S)-6-(4-(3-cyano-4-(trifluoromethyl)phenoxy)phenyl)-4-(1,2-dihydroxyethyl) picolinamide] | – | 0.5 ± 0.07 µM |
| NC(=O)c1cc(N(CCc2nn[nH]n2)c2ccccc2)cc(-c2ccc(Oc3ccc(F)cc3)cc2)n1 [compound 150, 6-[4-(4-Fluoro-phenoxy)-phenyl]-4-{phenyl-[2-(2H-tetrazol-5-yl)-ethyl]-amino}-pyridine-2-carboxylic acid amide] | – | 0.46 ± 0.04 µM |
| O=C1NCCN1CCNCCc1cccc(-c2ccc(Oc3ccc(F)cc3)cc2)n1 [compound 64, 1-(2-((2-(6-(4-(4-fluorophenoxy)phenyl)pyridin-2-yl)ethyl)amino)ethyl) imidazolidin-2-one] | 0.1 ± 0.3 µM | – |
| NC(=O)c1cc(-c2ccc(Oc3cccc(OC(F)(F)F)c3)cc2)cc([C@H](O)CO)n1 [compound 158, 6-((S)-1,2-Dihydroxy-ethyl)-4-[4-(3-trifluoromethoxy-phenoxy)phenyl]-pyridine-2-carboxylic acid amide] | – | 0.16 ± 0.01 µM |
| NC(=O)c1cc(-c2ccc(Oc3ccc(F)cc3)cc2)nc([C@@H](O)CO)c1 [compound 89, (R)-2-(1,2-dihydroxyethyl)-6-(4-(4-fluorophenoxy)phenyl) isonicotinamide] | – | 7.13 ± 0.5 µM |
| NC(=O)c1cc(-c2ccc(Oc3ccc(F)cc3)cc2)cc([C@H](O)CO)n1 [compound 95, (S)-6-(1,2-dihydroxyethyl)-4-(4-(4-fluorophenoxy)phenyl)picolinamide] | – | 0.17 ± 0.08 µM |
| NC(=O)c1cc([C@H](O)CO)cc(-c2ccc(Oc3ccc(F)cc3)cc2)n1 [compound 41, (S)-4-(1,2-dihydroxyethyl)-6-(4-(4-fluorophenoxy)phenyl)picolinamide] | – | 0.24 ± 0.04 µM |
| NC(=O)c1cc(-c2ccc(Oc3ccc(F)cc3)cc2)cc(N(CCc2nn[nH]n2)c2ccccc2)n1 [compound 151, 4-[4-(4-Fluoro-phenoxy)-phenyl]-6-{phenyl-[2-(2H-tetrazol-5-yl)-ethyl]-amino}-pyridine-2-carboxylic acid amide] | – | 0.16 ± 0.03 µM |
| N#CCN(CCN1CCNC1=O)Cc1cccc(-c2ccc(Oc3ccc(F)cc3)cc2)n1 [compound 69, 2-(((6-(4-(4-fluorophenoxy)phenyl)pyridin-2-yl)methyl) (2-(2-oxoimidazolidin-1-yl)ethyl)amino) acetonitrile] | – | 0.19 ± 0.05 µM |
| CN(c1ccccc1)c1cc(-c2ccc(Oc3ccc(F)cc3)cc2)cc(C(N)=O)n1 [compound 113, 4-(4-(4-fluorophenoxy)phenyl)-6-(methyl(phenyl)amino)picolinamide] | – | 0.36 ± 0.8 µM |
| N#Cc1cc(Oc2ccc(-c3cccc([C@@H](O)CO)n3)cc2)ccc1C(F)(F)F [compound 14, (R)-5-(4-(6-(1,2-dihydroxyethyl)pyridin-2-yl)phenoxy)-2-(trifluoromethyl) benzonitrile] | 1.3 ± 0.3 µM | – |
| OCC(O)c1cccc(-c2ccc(Oc3ncc(C(F)(F)F)cc3Cl)cc2)n1 (stereo not shown) [compound 15, 1-(6-(4-((3-chloro-5-(trifluoromethyl)pyridin-2-yl)oxy)phenyl)pyridin-2-yl) ethane-1,2-diol] | – | 1.42 ± 0.24 µM |

| Compound | IC50 | IC50 [1] |
| --- | --- | --- |
| CN(c1ccccc1)c1cc(C(N)=O)nc(-c2ccc(Oc3ccc(F)cc3)cc2)c1 [compound 43, 6-(4-(4-fluorophenoxy)phenyl)-4-(methyl (phenyl)amino) picolinamide] | – | 0.93 ± 0.17 µM |
| C[C@H](O)[C@@H](O)c1cc(C(N)=O)nc(-c2ccc(Oc3ccc(F)cc3)cc2)c1 [compound 129, 4-((1S,2S)-1,2-dihydroxypropyl)-6-(4-(4-fluorophenoxy)phenyl)picolinamide] | – | 1.74 ± 0.35 µM |
| N#Cc1cc(N2CCN(C(=N)N)CC2)cc(-c2ccc(Oc3ccc(F)cc3)cc2)n1 [compound 83, 4-(2-cyano-6-(4-(4-fluorophenoxy)phenyl)pyridin-4-yl) piperazine-1-carboximidamide] | – | 1.95 ± 0.52 µM |
| NC(=O)c1cc(-c2ccc(-c3ccc(F)cc3)cc2)cc([C@H](O)CO)n1 [compound 160, 6-((S)-1,2-Dihydroxy-ethyl)-4-(4′-fluoro-biphenyl-4-yl)pyridine-2-carboxylic acid amide] | 0.49 ± 0.12 µM | – |
| C[C@H](NCc1cccc(-c2ccc(Oc3ccc(F)cc3)cc2)n1)C(N)=O [compound 88, (S)-2-({6-[4-(4-Fluoro-phenoxyl)-phenyl]-pyridin-2-yl-methyl}-amino) propionamide] | – | 0.23 ± 0.09 µM |
| NC(=O)c1cc(NCc2ncccn2)cc(-c2ccc(Oc3ccc(F)cc3)cc2)n1 [compound 49, 6-(4-(4-fluorophenoxy)phenyl)-4-((pyrimidin-2-ylmethyl)amino) picolinamide] | – | 0.1 ± 0.03 µM |
| NC(=O)CN(c1ccccc1)c1cc(-c2ccc(Oc3ccc(F)cc3)cc2)cc(C(N)=O)n1 [compound 98, 6-((2-amino-2-oxoethyl)(phenyl)amino)-4-(4-(4-fluorophenoxy)phenyl)picolinamide] | – | 0.22 ± 0.07 µM |
| NC(=O)c1cc(C[C@H](O)CO)cc(-c2ccc(Oc3ccc(F)cc3)cc2)n1 [compound 135, (S)-4-(2,3-dihydroxypropyl)-6-(4-(4-fluorophenoxy)phenyl)picolinamide] | – | 7.26 ± 0.34 µM |
| N#Cc1ccc(Oc2ccc(-c3cccc([C@@H](O)CO)n3)cc2)cc1 [compound 13, (R)-4-(4-(6-(1,2-dihydroxyethyl)pyridin-2-yl)phenoxy) benzonitrile] | 0.89 ± 0.08 µM | – |
| NC(=O)c1cc(NCc2ccccn2)cc(-c2ccc(Oc3ccc(F)cc3)cc2)n1 [compound 47, 6-(4-(4-fluorophenoxy)phenyl)-4-((pyridin-2-ylmethyl)amino) picolinamide] | – | 0.22 ± 0.06 µM |
| C[C@H](Nc1cc(C#N)nc(-c2ccc(Oc3ccc(F)cc3)cc2)c1)C(N)=O [compound 165, (S)-2-((2-cyano-6-(4-(4-fluorophenoxy)phenyl)pyridin-4-yl)amino)propanamide] | – | 1.97 ± 0.49 µM |
| N#Cc1ccc(Oc2ccc(-c3cccc(C(O)CO)n3)cc2)c(C(F)(F)F)c1 (stereo not shown) [compound 9, 4-(4-(6-(1,2-dihydroxyethyl)pyridin-2-yl)phenoxy)-3-(trifluoromethyl) benzonitrile] | 0.5 ± 0.18 µM | – |
| O=C(O)c1cc(C(=O)NCCN2CCCCC2)nc(-c2ccc(Oc3ccc(F)cc3)cc2)c1 [compound 85, 2-(4-(4-fluorophenoxy)phenyl)-6-((2-(piperidin-1-yl)ethyl)carbamoyl)iso nicotinic acid] | – | 6.59 ± 2.17 µM |
| N#Cc1cccc2c1ccn2-c1cc(-c2ccc(Oc3ccc(F)cc3)cc2)cc(C(=O)O)n1 [compound 126, 6-(4-cyano-1H-indol-1-yl)-4-(4-(4-fluorophenoxy)phenyl) picolinic acid] | – | 1.05 ± 0.13 µM |
| CN(c1ccc(C(=O)O)cc1)c1cc(-c2ccc(Oc3ccc(F)cc3)cc2)cc(C(N)=O)n1 [compound 116, 4-((6-carbamoyl-4-(4-(4-fluorophenoxy)phenyl)pyridin-2-yl) (methyl)amino)benzoic acid] | – | 2.71 ± 0.73 µM |
| CC(C)NC(=O)N1CCN(c2cc(C(N)=O)nc(-c3ccc(Oc4ccc(F)cc4)cc3)c2)CC1 [compound 73, 4-(2-carbamoyl-6-(4-(4-fluorophenoxy)phenyl)pyridin-4-yl)-N-isopropylpiperazine-1-carboxamide] | – | 0.09 ± 0.03 µM |
| N#Cc1cccc2c1ccn2-c1cc(-c2ccc(Oc3ccc(F)cc3)cc2)cc(C(N)=O)n1 [compound 100, 6-(4-cyano-1H-indol-1-yl)-4-(4-(4-fluorophenoxy)phenyl) picolinamide] | – | 0.27 ± 0.03 µM |
| OCC(O)c1cccc(-c2ccc(Oc3ncccc3C(F)(F)F)cc2)n1 (stereo not shown) [compound 29, 1-(6-(4-((3-(trifluoromethyl)pyridin-2-yl)oxy)phenyl)pyridin-2-yl) ethane-1,2-diol] | – | 2.65 ± 0.37 µM |
| N#Cc1cc(Oc2ccc(-c3cc([C@@H](O)CO)cc(C(N)=O)n3)cc2)ccc1C(F)(F)F [compound 34, (R)-6-(4-(3-cyano-4-(trifluoromethyl)phenoxy)phenyl)-4-(1,2-dihydroxyethyl) picolinamide] | – | 0.38 ± 0.08 µM |
| NC(=O)CN(CCN1CCNC1=O)Cc1cccc(-c2ccc(Oc3ccc(F)cc3)cc2)n1 [compound 72, 2-(((6-(4-(4-fluorophenoxy)phenyl)pyridin-2-yl)methyl)(2-(2-oxoimidazolidin-1-yl)ethyl)amino) acetamide] | – | 0.76 ± 0.03 µM |
